The source of these data is patent publication US11477981B2, “Ice nucleation formulations for cryopreservation and stabilization of biologics” (The General Hospital Corporation, priority 2016, dated 2022).

Data set [1] deals with animals and animal cells. The conditions noted are these: at normal body temperatures; cited from earlier work.
The nature of data set [2]: Ice nucleation kinetics of picoliter-sized drops of D2O and H2O mixtures (droplet technology). It is filed as physicochemical. The text has this: FIG. 7. Probability distribution of ice nucleation temperature using nanodroplet technology, wherein condition 1 is pure heavy water containing 0.1 g/L SNOMAX, condition 2 is pure water containing 0.1 g/L SNOMAX, condition 3 is pure heavy water, and condition 4 is pure water.
This disclosure has also systematically investigated the ice nucleation kinetics of picoliter-sized drops of heavy water (e.g., D2O or T2O) and light water (H2O) mixtures with freeze-dried P. syringae. […] The disclosure further investigated the effects of commonly used cryoprotectants such as ethylene glycol, propylene glycol and trehalose on the freezing characteristics of D2O and H2O mixtures. […] Furthermore, several cryoprotectants are found to depress the freezing phenomenon. Both the homogeneous and heterogeneous freezing temperatures of these aqueous solutions depend on the water activity and are independent of the nature of solute.
A self-nucleating and preservation formulation comprising heavy water and ice nucleating agents was developed with broad applications in the field of cryopreservation. […]

The conditions of data set [3]: background statement; cited from earlier work.

As for `[2H]O[2H]` [D2O], the “concentration that can be toxic” value in data set [1] is reported as “more than 20%”. For the same molecule, the “shift of the ice nucleation kinetics profile per 25% (v/v) increase of D2O concentration” value in data set [2] (D2O+H2O mixtures containing 1 mg/ml SNOMAX) was “shifts by about one degree”. Besides, the median nucleation temperature in data set [2] (pure D2O, no ice nucleating agent, droplet technology) is −32.1 °C.

B1: ice nucleation active (INA) protein: ice nucleation active protein InaZ of Pseudomonas syringae (UniProt P06620-1; SEQ ID NO: 1) (protein, listed as Pseudomonas syringae)
chain: MNLDKALVLRTCANNMADHCGLIWPASGTVESRYWQSTRRHENGLVGLLWGAGTSAFLSVHADARWIVCEVAVADIISLEEPGMVKFPRAEVVHVGDRISASHFISARQADPASTSTSTLTPMPTAIPTPMPAVASVTLPVAEQARHEVFDVASVSAAAAPVNTLPVTTPQNVQTATYGSTLSGDNHSRLIAGYGSNETAGNHSDLIAGYGSTGTAGSDSWLVAGYGSTQTAGGDSALTAGYGSTQTAREGSNLTAGYGSTGTAGSDSSLIAGYGSTQTSGGDSSLTAGYGSTQTAQEGSNLTAGYGSTGTAGSDSSLIAGYGSTQTSGGDSSLTAGYGSTQTAQEGSNLTAGYGSTGTAGVDSSLIAGYGSTQTSGSDSALTAGYGSTQTAQEGSNLTAGYGSTGTAGSDSSLIAGYGSTQTSGSDSSLTAGYGSTQTAQEGSILTAGYGSTGTAGVDSSLIAGYGSTQTSGSDSALTAGYGSTQTAQEGSNLTAGYGSTGTAGADSSLIAGYGSTQTSGSESSLTAGYGSTQTAREGSTLTAGYGSTGTAGADSSLIAGYGSTQTSGSESSLTAGYGSTQTAQQGSVLTSGYGSTQTAGAASNLTTGYGSTGTAGHESFIIAGYGSTQTAGHKSILTAGYGSTQTARDGSDLIAGYGSTGTAGSGSSLIAGYGSTQTASYRSMLTAGYGSTQTAREHSDLVTGYGSTSTAGSNSSLIAGYGSTQTAGFKSILTAGYGSTQTAQERTSLVAGYGSTSTAGYSSSLIAGYGSTQTAGYESTLTAGYGSTQTAQENSSLTTGYGSTSTAGYSSSLIAGYGSTQTAGYESTLTAGYGSTQTAQERSDLVTGYGSTSTAGYASSLIAGYGSTQTAGYESTLTAGYGSTQTAQENSSLTTGYGSTSTAGFASSLISGYGSTQTAGYKSTLTAGYGSTQTAEYGSSLTAGYGSTATAGQDSSLIAGYGSSLTSGIRSFLTAGYGSTLIAGLRSVLIAGYGSSLTSGVRSTLTAGYGSNQIASYGSSLIAGHESIQVAGNKSMLIAGKGSSQTAGFRSTLIAGAGSVQLAGDRSRLIAGADSNQTAGDRSKLLAGNNSYLTAGDRSKLTGGHDCTLMAGDQSRLTAGKNSVLTAGARSKLIGSEGSTLSAGEDSILIFRLWDGKRYRQLVARTGENGVEADIPYYVNEDDDIVDKPDEDDDWIEVK
Consider B1, for which the “temperature at which water freezes” value in data set [3] is −4 to −2 °C.
